From US9149038B2, “4-amino-6-(heterocyclic)picolinates and 6-amino-2-(heterocyclic)pyrimidine-4-carboxylates and their use as herbicides” (Dow AgroSciences LLC, priority 2013, dated 2015)

System: Key Broadleaf and Grass Weed as well as Crop Species
Test: Pre-Emergent Test I: preemergent herbicidal activity, herbicidal effect rating 14 days after treatment (Table 6)
Format: in vivo
Conditions: for Visual Growth Reduction (%) 14 Days After Application ECHCG: barnyardgrass (Echinochloa crus-galli); for Visual Growth Reduction (%) 14 Days After Application SETFA: giant foxtail (Setaria faberi); for Visual Growth Reduction (%) 14 Days After Application IPOHE: ivyleaf morningglory (Ipomoea hederecea); for Visual Growth Reduction (%) 14 Days After Application HELAN: sunflower (Helianthus annuus); for Visual Growth Reduction (%) 14 Days After Application AVEFA: wild oats (Avena fatua)
Protocol: Herbicidal evaluations were made visually on a scale of 0 to 100 where 0 represents no activity and 100 represents complete plant death. Pre-Emergent Test I: Seeds of test species were planted into round plastic pots (5-inch diameter) containing sandy loam soil. After planting, all pots were sub-irrigated 16 h prior to compound application. Compounds were dissolved in a 97:3 v/v mixture of acetone and DMSO and diluted to the appropriate concentration in a final application solution containing water, acetone, isopropanol, DMSO and Agri-dex (crop oil concentrate) in a 59:23:15:1.0:1.5 v/v ratio and 0.02% w/v (weight/volume) of Triton X-155 to obtain the spray solution containing the highest application rate. The high application rate was serial diluted with the above application solution to provide delivery of the compound at rates ½×, ¼× and ⅛× of the highest rate (equivalent to 4.0, 2.0, 1.0, and 0.5 kg/ha, respectively). Formulated compound (2.7 mL) was applied pipetted evenly over the soil surface followed by incorporation with water (15 mL). Following treatment, pots were returned to the greenhouse for the duration of the experiment. The greenhouse was programmed for an approximate 15 h photoperiod which was maintained at about 23-29° C. during the day and 22-28° C. during the night. Nutrients and water were added on a regular basis through surface irrigation and supplemental lighting was provided with overhead metal halide 1000-Watt lamps as necessary. Herbicidal effect ratings were obtained 14 days after treatment. All evaluations were made relative to appropriate controls on a scale of 0 to 100 where 0 represents no herbicidal effect and 100 represents plant death or lack of emergence from the soil and are presented as indicated in Table 4.

Compound | Visual Growth Reduction (%) 14 Days After Application ECHCG (4 kg ai/ha) | Visual Growth Reduction (%) 14 Days After Application SETFA (4 kg ai/ha) | Visual Growth Reduction (%) 14 Days After Application IPOHE (4 kg ai/ha) | Visual Growth Reduction (%) 14 Days After Application HELAN (4 kg ai/ha) | Visual Growth Reduction (%) 14 Days After Application AVEFA (4 kg ai/ha) | Visual Growth Reduction (%) 14 Days After Application ECHCG (3.96 kg ai/ha) | Visual Growth Reduction (%) 14 Days After Application SETFA (3.96 kg ai/ha) | Visual Growth Reduction (%) 14 Days After Application IPOHE (3.96 kg ai/ha) | Visual Growth Reduction (%) 14 Days After Application HELAN (3.96 kg ai/ha) | Visual Growth Reduction (%) 14 Days After Application AVEFA (3.96 kg ai/ha)
COC(=O)c1nc(-c2cccc3c2OCO3)c(F)c(N)c1Cl [Compound 71, Methyl 4-amino-6-(benzo[d][1,3]dioxol-4-yl)-3-chloro-5-fluoropicolinate] | F (30-44) | G (0-29) | E (45-59) | A (95-100) | F (30-44) |  |  |  |  | 
COC(=O)c1nc(-c2cccc3c2OC(F)(F)O3)c(F)c(N)c1Cl [Compound 73] |  |  |  |  |  | G (0-29) | G (0-29) | C (75-84) | A (95-100) | G (0-29)
Nc1c(F)c(-c2cccc3c2OCO3)nc(C(=O)O)c1Cl [Compound 72, 4-Amino-6-(benzo[d][1,3]dioxol-4-yl)-3-chloro-5-fluoropicolinic acid] | C (75-84) | G (0-29) | G (0-29) | A (95-100) | D (60-74) |  |  |  |  | 
Nc1c(F)c(-c2cccc3c2OC(F)(F)O3)nc(C(=O)O)c1Cl [Compound 74] |  |  |  |  |  | A (95-100) | E (45-59) | D (60-74) | A (95-100) | D (60-74)
